According to US8088791B2, “Antibacterial agents” (Biots Scientific Management Pty Ltd, priority 2006, dated 2012):
Read-outs that look alike come from different tables or passages of the source. One block for each compound: values may come before it.

Legend:
Assay type in all cases: cell-based
[1] = tested on: various bacterial species; test: Minimum Inhibitory Concentration (MIC) testing, broth microdilution, other bacterial species
Experimental: (§1) Compounds of this invention were tested for antimicrobial activity by susceptibility testing in liquid media. MICs for compounds against each strain were determined by a broth microdilution method according to the National Committee for Clinical Laboratory Standards (NCCLS) guidelines. (NCCLS. 2000. Methods for dilution antimicrobial susceptibility tests for bacteria that grow aerobically—fifth edition. Approved standard M7-A5. NCCLS, Wayne, Pa.)
(§2) Briefly, test compounds are prepared in 100 μl of 1.6% DMSO solution in multiwell plates. Several bacterial colonies from a freshly streaked plate are transferred to an appropriate rich broth, such as Mueller Hinton. The cell suspension is adjusted to an optical density of 0.09 and further diluted 1:100 with warm 2× broth. This cell suspension is dispensed into the wells containing compound solution so that the final volume is 200 μl. The plates are incubated overnight (16-20 hours) at 37° C. and turbidity is scored by eye and quantified spectrophotometrically. The MIC is defined as the lowest concentration inhibiting visible growth.
Some of the Examples were also tested for activity against other bacterial species. […] Activities were again scored as ‘A’ if the MIC was ≦8 micrograms/ml, ‘B’ if the MIC was 16 to 64 micrograms/ml and ‘C’ if the MIC was greater than 64 micrograms/ml.

[2] = tested on: Staphylococcus aureus ATCC29213; test: Minimum Inhibitory Concentration (MIC) testing, broth microdilution, Staphylococcus aureus; settings: Staphylococcus aureus ATCC29213; read-out: Staphylococcus aureus MICs Activity
Procedure, shortened: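 Broth microdilution per NCCLS M7-A5 in Mueller Hinton broth, with compound in 1.6% DMSO and inoculum at OD 0.09 diluted 1:100. Plates incubated 16–20 h at 37°C. MIC is the lowest concentration with no visible growth; scored A ≤8, B 16–64, C >64 μg/ml.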

[3] = tested on: Bacillus subtilis 168CA; test: Minimum Inhibitory Concentration (MIC) testing, broth microdilution, Bacillus subtilis; settings: Bacillus subtilis 168CA; read-out: Bacillus subtilis MICs Activity
Procedure, shortened: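 MICs were scored A (≦8 μg/ml), B (16–64 μg/ml) or C (>64 μg/ml), read as the lowest concentration preventing visible growth by eye and spectrophotometry. Plates incubated overnight (16–20 h) at 37 °C, inoculum OD 0.09 diluted 1:100 in 2× broth, per NCCLS guidelines.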

[4] = tested on: staphylococcal clinical isolates; test: Minimum Inhibitory Concentration (MIC) testing, broth microdilution, staphylococcal clinical isolates; settings: for MIC: read-out: MIC Activity against clinical isolate
Experimental: as §1, §2
Some of the Examples were also tested for activity against staphylococcal clinical isolates. […] Activities were again scored as ‘A’ if the MIC was ≦8 micrograms/ml, ‘B’ if the MIC was 16 to 64 micrograms/ml and ‘C’ if the MIC was greater than 64 micrograms/ml.

[5] = Staphylococcus epidermidis, ATCC12228, read-out: MIC Activity Staphylococcus epidermidis ATCC 12228
[6] = Staphylococcus saprophyticus, ATCC15305, read-out: MIC Activity Staphylococcus saprophyticus ATCC 15305
[7] = Bacillus cereus, ATCC14579, read-out: MIC Activity Bacillus cereus ATCC 14579
[8] = Staphylococcus haemolyticus, ATCC29970, read-out: MIC Activity Staphylococcus haemolyticus ATCC 29970

Structure (SMILES): C#CCCCCCCCCCOc1cccc(C(N)=O)c1F [Example 177, 2-Fluoro-3-(10-undecynyloxy)benzenecarboxamide]
MIC [1, 5]: < 8 µg/mL
MIC [2]: < 8 µg/mL
MIC [3]: < 8 µg/mL

Structure (SMILES): NC(=O)c1c(F)ccc(OCc2nc3ccccc3s2)c1F [Example 215, 3-(1,3-Benzothiazol-2-ylmethoxy)-2,6-difluorobenzenecarboxamide]
MIC [1, 5]: < 8 µg/mL
MIC [2]: < 8 µg/mL
MIC [3]: < 8 µg/mL

Structure (SMILES): NC(=O)c1c(F)ccc(OCc2nc3cc(C(F)(F)F)ccc3s2)c1F [Example 217, 2,6-Difluoro-3-[5-(trifluoromethyl)-1,3-benzothiazol-2-yl]methoxybenzenecarboxamide]
MIC Activity against clinical isolate ([4]; S. aureus No. 753, Oxacillin S, Hospital): A (‘A’ if the MIC was ≦8 micrograms/ml)
MIC Activity against clinical isolate ([4]; S. aureus No. 757, Oxacillin R, Tet-R, MI-R, Hospital (tetM)): A (‘A’ if the MIC was ≦8 micrograms/ml)
MIC Activity against clinical isolate ([4]; S. aureus No. 1134, Oxacillin S, Hospital): A (‘A’ if the MIC was ≦8 micrograms/ml)
MIC Activity against clinical isolate ([4]; S. aureus No. 1135, Oxacillin R, Van-S, LZD-S, Hospital): A (‘A’ if the MIC was ≦8 micrograms/ml)
MIC Activity against clinical isolate ([4]; S. aureus No. 1651, Oxacillin R, Van-S, LZD-R, Hospital (G2576T, G)): A (‘A’ if the MIC was ≦8 micrograms/ml)
MIC Activity against clinical isolate ([4]; S. aureus No. 1652, Oxacillin R, Van-S, LZD-R, Hospital (T2500T, A)): A (‘A’ if the MIC was ≦8 micrograms/ml)
MIC Activity against clinical isolate ([4]; S. aureus No. 1662, Oxacillin S, Hospital): A (‘A’ if the MIC was ≦8 micrograms/ml)
MIC Activity against clinical isolate ([4]; S. aureus No. 1725, Oxacillin R, Van-S, LZD-R, Hospital (G2576T)): A (‘A’ if the MIC was ≦8 micrograms/ml)
MIC Activity against clinical isolate ([4]; S. aureus No. 1729, Oxacillin R, Tet-R, MI-R, Hospital): A (‘A’ if the MIC was ≦8 micrograms/ml)
MIC Activity against clinical isolate ([4]; S. aureus No. 2011, Oxacillin R, Tet-R, MI-S, Hospital (tetK)): A (‘A’ if the MIC was ≦8 micrograms/ml)
MIC Activity against clinical isolate ([4]; S. aureus No. 2012, Oxacillin R, Van-I, LZD-S, Hospital): A (‘A’ if the MIC was ≦8 micrograms/ml)
MIC Activity against clinical isolate ([4]; S. aureus No. 2018, Oxacillin R, Van-I, LZD-S, Hospital): A (‘A’ if the MIC was ≦8 micrograms/ml)
MIC Activity against clinical isolate ([4]; S. aureus No. 2142, Oxacillin R, CC-S, SXT-S, Community): A (‘A’ if the MIC was ≦8 micrograms/ml)
MIC Activity against clinical isolate ([4]; S. aureus No. 2143, Oxacillin R, Rif-R, Community): A (‘A’ if the MIC was ≦8 micrograms/ml)
MIC Activity against clinical isolate ([4]; S. aureus No. 2147, Oxacillin R, CC-S, SXT-S, Community): A (‘A’ if the MIC was ≦8 micrograms/ml)
MIC Activity against clinical isolate ([4]; S. aureus No. 2149, Oxacillin R, CC-R (iMLS), SXT-S, Community): A (‘A’ if the MIC was ≦8 micrograms/ml)
MIC Activity against clinical isolate ([4]; S. aureus No. 2150, Oxacillin R, CC-R, SXT-S, Community): A (‘A’ if the MIC was ≦8 micrograms/ml)
MIC Activity against clinical isolate ([4]; S. aureus No. 2158, Oxacillin R, CC-R, Doxy-I, Community): A (‘A’ if the MIC was ≦8 micrograms/ml)
MIC Activity against clinical isolate ([4]; S. aureus No. 2175, Oxacillin R, TMP-R, Community): A (‘A’ if the MIC was ≦8 micrograms/ml)
MIC Activity against clinical isolate ([4]; S. epidermidis No. 831, Oxacillin R): A (‘A’ if the MIC was ≦8 micrograms/ml)
MIC Activity against clinical isolate ([4]; S. epidermidis No. 1139, Oxacillin S): A (‘A’ if the MIC was ≦8 micrograms/ml)
MIC Activity against clinical isolate ([4]; S. epidermidis No. 1142, Oxacillin R): A (‘A’ if the MIC was ≦8 micrograms/ml)
MIC Activity against clinical isolate ([4]; S. epidermidis No. 1144, Oxacillin R): A (‘A’ if the MIC was ≦8 micrograms/ml)
MIC ([4]; Staphylococcus aureus, ATCC29213, S. aureus No. 0100, Oxacillin S, ATCC 29213): < 8 µg/mL
MIC ([4]; Staphylococcus aureus, S. aureus No. 1015, Oxacillin R, Van-S, LZD-S, Hospital): < 8 µg/mL
MIC ([4]; Staphylococcus epidermidis, S. epidermidis No. 835, Oxacillin S): < 8 µg/mL
MIC [1, 7]: < 8 µg/mL
MIC [1, 5]: < 8 µg/mL
MIC [1, 6]: < 8 µg/mL
MIC [2]: < 8 µg/mL
MIC [3]: < 8 µg/mL

Structure (SMILES): NC(=O)c1cccc(OCc2nc(-c3ccc(Cl)cc3)cs2)c1F [Example 271, 3-[4-(4-Chloro-phenyl)-thiazol-2-ylmethoxy]-2-fluoro-benzamide]
MIC [1, 5]: < 8 µg/mL
MIC [2]: < 8 µg/mL
MIC [3]: < 8 µg/mL

Structure (SMILES): COc1ccc(-c2nc(COc3ccc(F)c(C(N)=O)c3F)sc2-c2ccc(OC)cc2)cc1 [Example 282, 2,6-Difluoro-3-[5-(4-methoxy-phenyl)-4-(4-methoxy-phenyl)-thiazol-2-ylmethoxy]-benzamide]
MIC [1, 5]: < 8 µg/mL
MIC [2]: < 8 µg/mL
MIC [3]: < 8 µg/mL

Structure (SMILES): COc1ccc(-c2nc(COc3ccc(F)c(C(N)=O)c3F)sc2-c2ccccc2)cc1 [Example 287, 2,6-Difluoro-3-[4-(4-methoxy-phenyl)-5-phenyl-thiazol-2-ylmethoxy]-benzamide]
MIC [1, 8]: < 8 µg/mL
MIC [2]: < 8 µg/mL
MIC [3]: < 8 µg/mL

Structure (SMILES): COc1ccc(-c2coc(COc3ccc(F)c(C(N)=O)c3F)n2)cc1 [Example 311, 2,6-Difluoro-3-[4-(4-methoxy-phenyl)-oxazol-2-ylmethoxy]-benzamide]
MIC [1, 5]: < 8 µg/mL
MIC [2]: < 8 µg/mL
MIC [3]: < 8 µg/mL

The next lines start with results.

MIC [1, 5]: < 8 µg/mL
MIC [2]: < 8 µg/mL
MIC [3]: < 8 µg/mL
Structure (SMILES): C#CCCCCCCCCCOc1cccc(C(N)=O)c1 [Example 46, 3-(10-Undecynyloxy)benzenecarboxamide]

MIC [1, 5]: < 8 µg/mL
MIC [2]: < 8 µg/mL
MIC [3]: < 8 µg/mL
Structure (SMILES): CCCCCC/C=C/COc1ccc(F)c(C(N)=O)c1F [Example 84, 2,6-Difluoro-3-[(E)-2-nonenyloxy]benzenecarboxamide]

MIC [1, 5]: < 8 µg/mL
MIC [2]: < 8 µg/mL
MIC [3]: < 8 µg/mL
Structure (SMILES): CCCC/C=C\CCCCOc1ccc(F)c(C(N)=O)c1F [Example 87, 2,6-Difluoro-3-[(Z)-5-decenyloxy]benzenecarboxamide]

MIC [1, 5]: < 8 µg/mL
MIC [2]: < 8 µg/mL
MIC [3]: < 8 µg/mL
Structure (SMILES): C#CCCCCCCCCCOc1ccc(F)c(C(N)=O)c1F [Example 88, 2,6-Difluoro-3-(10-undecynyloxy)benzenecarboxamide]

MIC [1, 6]: < 8 µg/mL
MIC [2]: < 8 µg/mL
MIC [3]: < 8 µg/mL
Structure (SMILES): NC(=O)c1c(F)ccc(OCc2ccc3ccc(Cl)cc3n2)c1F [Example 111, 3-(7-Chloro-quinolin-2-ylmethoxy)-2,6-difluoro-benzamide]

MIC [1, 7]: < 8 µg/mL
MIC [1, 6]: < 8 µg/mL
MIC [2]: < 8 µg/mL
MIC [3]: < 8 µg/mL
Structure (SMILES): NC(=O)c1c(F)ccc(OCc2nc3cc(-c4ccccc4)ccc3s2)c1F [Example 114, 2,6-Difluoro-3-(5-phenyl-benzothiazol-2-ylmethoxy)-benzamide]

MIC [2]: < 8 µg/mL
MIC [3]: < 8 µg/mL
Structure (SMILES): CCCc1ccc2sc(COc3ccc(F)c(C(N)=O)c3F)nc2c1 [Example 135, 2,6-Difluoro-3-(5-propyl-benzothiazol-2-ylmethoxy)-benzamide]
MIC [1, 8]: < 8 µg/mL

MIC [1, 5]: < 8 µg/mL
MIC [2]: < 8 µg/mL
MIC [3]: < 8 µg/mL
Structure (SMILES): NC(=O)c1c(F)ccc(OCc2nc3cc(Cl)cnc3s2)c1F [Example 139, 3-(6-Chloro-thiazolo[5,4-b]pyridin-2-ylmethoxy)-2,6-difluoro-benzamide]
MIC [1, 8]: < 8 µg/mL

MIC [1, 5]: < 8 µg/mL
MIC [2]: < 8 µg/mL
MIC [3]: < 8 µg/mL
Structure (SMILES): CCCCCCCCCOc1cccc(C(N)=O)c1F [Example 175, 2-Fluoro-3-(nonyloxy)benzenecarboxamide]
